Results taken from patent publication US20250066370A1, “BICYCLIC TRIAZINE DERIVATIVES FOR THE TREATMENT OF CANCER” (DEUTSCHES KREBSFORSCHUNGSZENTRUM, priority 2022, published 2025).

Tests used:
[1] = tested on: CAL-120, human breast adenocarcinoma cells; assay: Proliferation assay CAL-120 (crystal violet); assay type: cell-based; conditions: 96 h, CAL-120 parental cells, 4 days, median, read-out: Prolif-CAL-120, IC50 - [mol/l] (median)
Experimental: Human tumour cells were originally obtained from the American Type Culture Collection (ATCC), or from the Deutsche Sammlung von Mikroorganismen und Zellkulturen (DSMZ, German Collection of Microorganisms and Cell Cultures). Cultivated tumour cells (CAL-120, human breast adenocarcinoma cells, DSMZ ACC-459; MDA-MB-231, human breast cancer cells, ATCC HTB-26) were plated at a density of 4,000 cells/well in a 96-well multitier plate in 200 microL of their respective growth medium supplemented 10% fetal calf serum. After 24 hours, the cells of one plate (zero-point plate) were stained with crystal violet (see below), while the medium of the other plates was supplemented with the test substances in various concentrations (0 micromol/L, as well as in the range of 0.01-10 micromol/L; the final concentration of the solvent dimethyl sulfoxide was adjusted to 0.1%) using a Tecan HP D300 Digital Dispenser. The cells were incubated for 4 days in the presence of test substances. Cell proliferation was determined by staining the cells with crystal violet: the cells were fixed by adding 20 microL/measuring point of an 11% glutaric aldehyde solution for 15 minutes at room temperature. After three washing cycles of the fixed cells with water, the plates were dried at room temperature. The cells were stained by adding 100 microL/measuring point of a 0.1% crystal violet solution (pH 3.0). After three washing cycles of the stained cells with water, the plates were dried at room temperature. The dye was dissolved by adding 100 microL/measuring point of a 10% acetic acid solution. The extinction was determined by photometry at a wavelength of 595 nm. The change of cell number, in percent, was calculated by normalization of the measured values to the extinction values of the zero-point plate (=0%) and the extinction of the untreated (0 μM) cells (=100%). The IC50 values (inhibitory concentration at 50% of maximal effect) were determined by means of a 4 parameter fit.

CDK12 = CDK12 (Homo sapiens (Human), UniProt Q9NYV4); assay: CDK12 nuclear protein level: immunofluorescence/high content analysis in CAL-120 cells; assay type: cell-based; conditions: 24 h, nuclear CDK12 staining intensity, median, read-out: CDK12 degradation IF, DC50 - [mol/l] (median)
Chain of CDK12 (Q9NYV4 whole entry): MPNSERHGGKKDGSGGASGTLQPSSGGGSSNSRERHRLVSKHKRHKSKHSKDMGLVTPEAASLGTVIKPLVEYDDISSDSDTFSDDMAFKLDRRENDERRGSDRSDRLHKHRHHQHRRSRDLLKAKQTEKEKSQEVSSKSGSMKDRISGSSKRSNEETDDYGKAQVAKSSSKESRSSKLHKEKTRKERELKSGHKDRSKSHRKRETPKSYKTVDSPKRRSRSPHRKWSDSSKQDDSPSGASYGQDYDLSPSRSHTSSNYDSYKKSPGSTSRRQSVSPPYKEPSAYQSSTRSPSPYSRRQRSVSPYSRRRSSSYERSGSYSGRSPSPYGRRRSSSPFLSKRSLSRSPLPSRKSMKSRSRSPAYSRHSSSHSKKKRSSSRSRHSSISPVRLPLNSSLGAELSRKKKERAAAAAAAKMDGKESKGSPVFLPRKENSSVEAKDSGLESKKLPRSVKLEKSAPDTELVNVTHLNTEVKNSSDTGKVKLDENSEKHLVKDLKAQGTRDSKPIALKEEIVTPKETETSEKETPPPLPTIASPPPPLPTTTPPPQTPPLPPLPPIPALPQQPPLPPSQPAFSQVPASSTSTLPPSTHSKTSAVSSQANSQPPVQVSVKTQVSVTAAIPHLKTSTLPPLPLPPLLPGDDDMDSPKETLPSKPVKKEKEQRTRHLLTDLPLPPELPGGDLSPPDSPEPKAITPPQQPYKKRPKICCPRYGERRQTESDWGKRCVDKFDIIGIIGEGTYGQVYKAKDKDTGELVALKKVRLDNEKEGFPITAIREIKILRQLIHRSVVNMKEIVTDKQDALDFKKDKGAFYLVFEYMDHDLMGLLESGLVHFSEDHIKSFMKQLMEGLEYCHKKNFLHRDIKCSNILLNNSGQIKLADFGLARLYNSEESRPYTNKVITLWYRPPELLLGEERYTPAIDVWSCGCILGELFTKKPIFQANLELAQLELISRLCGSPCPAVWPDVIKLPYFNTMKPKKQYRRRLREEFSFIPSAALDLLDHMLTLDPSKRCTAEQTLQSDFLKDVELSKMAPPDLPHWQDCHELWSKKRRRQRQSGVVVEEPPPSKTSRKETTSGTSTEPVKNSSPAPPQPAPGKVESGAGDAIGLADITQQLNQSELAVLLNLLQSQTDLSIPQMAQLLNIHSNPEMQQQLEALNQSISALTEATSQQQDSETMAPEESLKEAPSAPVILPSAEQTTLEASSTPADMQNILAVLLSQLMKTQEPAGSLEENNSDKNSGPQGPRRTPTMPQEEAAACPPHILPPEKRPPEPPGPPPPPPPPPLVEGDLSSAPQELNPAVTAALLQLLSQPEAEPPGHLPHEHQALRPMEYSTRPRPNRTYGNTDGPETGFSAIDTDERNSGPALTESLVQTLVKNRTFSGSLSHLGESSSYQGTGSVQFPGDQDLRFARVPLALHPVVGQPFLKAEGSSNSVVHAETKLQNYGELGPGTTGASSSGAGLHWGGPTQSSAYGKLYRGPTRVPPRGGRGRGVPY
Chain of CDK12 (O75909 whole entry partner): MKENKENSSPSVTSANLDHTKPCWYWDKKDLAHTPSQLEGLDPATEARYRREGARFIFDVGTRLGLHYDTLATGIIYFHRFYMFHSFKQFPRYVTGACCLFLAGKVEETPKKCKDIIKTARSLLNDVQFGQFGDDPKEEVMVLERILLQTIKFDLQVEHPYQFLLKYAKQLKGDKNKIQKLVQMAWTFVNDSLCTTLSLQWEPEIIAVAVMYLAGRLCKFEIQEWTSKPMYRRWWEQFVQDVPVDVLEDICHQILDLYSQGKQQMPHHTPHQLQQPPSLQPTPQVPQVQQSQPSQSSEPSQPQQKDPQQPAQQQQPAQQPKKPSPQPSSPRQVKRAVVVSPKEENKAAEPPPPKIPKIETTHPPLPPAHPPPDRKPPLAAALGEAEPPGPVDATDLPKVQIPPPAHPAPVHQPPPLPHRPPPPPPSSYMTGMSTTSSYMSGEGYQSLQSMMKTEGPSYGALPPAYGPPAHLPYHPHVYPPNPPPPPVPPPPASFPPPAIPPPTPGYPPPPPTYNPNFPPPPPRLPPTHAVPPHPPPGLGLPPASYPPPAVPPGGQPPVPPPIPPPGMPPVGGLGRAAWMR
Experimental: In the context of the present invention, the term “DC50 CDK12” refers to the DC50 values obtained according to the assay described in this section (7) herein below, i.e. the DC50 values for the degradation of CDK12.
CAL-120 human breast cancer cells (DSMZ ACC 459) are seeded in 1536-well microtiter plates (800 cells per well) containing 50 nanoL of compounds in Dose-Response. Control wells received DMSO or Example 4. Plates are then incubated for 24 h at 37° C. in an humidified incubator and fixed with 4% PFA for 10 min. Then immunofluorescence (IF) against CDK12 (CellSignalling CDK12 Antibody #11973, rabbit, 1:100 dilution) is performed using standard IF protocols. Cells are then stained with Hoechst 33342 (Life Technologies, H-1399, 0.1 microg/ml) and imaged on an automated confocal microscopy system (e.g. Perkin Elmer Opera Phenix). Nuclear and cytoplasmic intensity as well as the nuclear/cytoplasmic intensity ratio is determined by automated image analysis using custom generated scripts (MetaXpress). Data is then transferred to Genedata Screener software, normalized to DMSO and control and DC50 values (degrading concentration to achieve 50% reduction of nuclear CDK12 staining intensity relative to controls) are reported.

CDK12/CyclinK = CDK12/CyclinK (Homo sapiens (Human), UniProt Q9NYV4); assay: CDK12/CycK high ATP kinase assay (TR-FRET); assay type: biochemical; conditions: for IC50: 2 mM ATP (high ATP), median, read-out: CDK12/CyclinK, 2 mM ATP (high ATP), IC50 - [mol/l] (median); for (IC50 CDK12 high ATP) to (Degradation DC50 CDK12) ratio: IC50 CDK12 at 2 mM ATP divided by CDK12 degradation DC50 (IF, CAL-120)
Chain of CDK12/CyclinK (Q9NYV4 other isoform, or with tags, fused parts or gaps): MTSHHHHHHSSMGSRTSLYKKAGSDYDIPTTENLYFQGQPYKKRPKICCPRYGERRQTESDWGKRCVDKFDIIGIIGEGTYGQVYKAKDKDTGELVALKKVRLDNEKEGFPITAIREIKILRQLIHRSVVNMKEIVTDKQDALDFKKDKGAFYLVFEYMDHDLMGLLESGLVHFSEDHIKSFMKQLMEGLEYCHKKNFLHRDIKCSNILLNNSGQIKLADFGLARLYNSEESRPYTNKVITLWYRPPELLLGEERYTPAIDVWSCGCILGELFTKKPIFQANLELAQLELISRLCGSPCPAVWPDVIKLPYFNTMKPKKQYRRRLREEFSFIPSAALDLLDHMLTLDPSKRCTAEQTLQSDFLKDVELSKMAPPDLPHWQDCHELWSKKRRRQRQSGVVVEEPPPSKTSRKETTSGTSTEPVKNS
Chain of CDK12/CyclinK (O75909 other isoform, or with tags, fused parts or gaps partner): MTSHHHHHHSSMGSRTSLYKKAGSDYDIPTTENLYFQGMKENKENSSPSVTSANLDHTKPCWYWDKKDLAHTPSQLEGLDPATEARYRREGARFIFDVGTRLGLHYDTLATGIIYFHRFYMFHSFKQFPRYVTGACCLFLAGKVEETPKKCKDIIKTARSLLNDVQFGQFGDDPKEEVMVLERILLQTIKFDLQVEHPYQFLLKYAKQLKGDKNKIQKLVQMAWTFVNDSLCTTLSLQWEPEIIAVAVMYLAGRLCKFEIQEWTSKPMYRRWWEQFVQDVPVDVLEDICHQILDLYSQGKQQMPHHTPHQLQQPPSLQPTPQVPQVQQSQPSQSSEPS
Experimental: In the context of the present invention, the term “IC50 CDK12 hATP” refers to the IC50 values obtained according to the assay described in this section (2.2) herein below, i.e. the IC50 values for the inhibition of CDK12 at high (2 mM) ATP.
CDK12/CycK-inhibitory activity of compounds of the present invention at 2 millimol/L adenosine-tri-phosphate (ATP) was quantified employing the TR-FRET (TR-FRET=Time Resolved Fluorescence Energy Transfer) based CDK12/CycK activity inhibition assay as described in the following paragraphs.
A complex of human recombinant CDK12 and human recombinant CycK (both N-terminally His-tagged, expression and purification as described above) was used as enzyme. As substrate for the kinase reaction biotinylated peptide biotin-Ahx-KFELLPTPPLSPSRRSGL (C-terminus in amid form) was used which can be purchased e.g. form the company Biosyntan (Berlin-Buch, Germany).
For the assay 50 nanoL of a 100 fold concentrated solution of the test compound in DMSO was pipetted into either a black low volume 384 well microtiter plate or a black 1536 well microtiter plate (both Greiner Bio-One, Frickenhausen, Germany), 2 microL of a solution of CDK12/CycK in aqueous assay buffer [25 millimol/L HEPES pH 7.5, 20 millimol/L MgCl2, 5 millimol/L β-glycerophosphate, 2 millimol/L EGTA, 1.0 millimol/L dithiothreitol, 0.01% (v/v) Nonidet-P40 (Sigma), 0.01% (w/v) bovine serum albumin] were added and the mixture was incubated for 15 min at 22° C. to allow pre-binding of the test compounds to the enzyme before the start of the kinase reaction. Then the kinase reaction was started by the addition of 3 microL of a solution ATP (3.33 millimol/L=>final conc. in the 5 microL assay volume is 2 millimol/L) and substrate (1.67 micromol/L=>final conc. in the 5 microL assay volume is 1 micromol/L) in assay buffer and the resulting mixture was incubated for a reaction time of 60 min at 22° C. The concentration of CDK12/CycK was adjusted depending of the activity of the enzyme lot and was chosen appropriate to have the assay in the linear range, typical concentrations were about 0.75 nanomol/L. The reaction was stopped by the addition of 3 microL of a solution of TR-FRET detection reagents (125 nanomol/L streptavidine-XL665 [Cisbio Bioassays, Codolet, France] and 0.67 nanomol/L anti-Phospho-c-Myc (Ser 62) (E1J4K)-antibody from Cell Signalling [#13748] and 2 nanomol/L LANCE EU-W1024 labeled anti-rabbit IgG antibody [Perkin-Elmer, product no. 0083]) in an aqueous EDTA-solution (133 millimol/L EDTA, 0.27% (w/v) bovine serum albumin in 66.7 millimol/L HEPES pH 7.5).
The resulting mixture was incubated 1 h at 22° C. to allow the formation of complex between the phosphorylated biotinylated peptide and the detection reagents. Subsequently the amount of phosphorylated substrate was evaluated by measurement of the resonance energy transfer from the Eu-chelate to the streptavidine-XL. Therefore, the fluorescence emissions at 620 nm and 665 nm after excitation at 350 nm was measured in a TR-FRET reader, e.g. a Pherastar FS (BMG Labtechnologies, Offenburg, Germany) or a Viewlux (Perkin-Elmer). The ratio of the emissions at 665 nm and at […] was taken as the measure for the amount of phosphorylated substrate. The data were normalised (enzyme reaction without inhibitor=0% inhibition, all other assay components but no enzyme=100% inhibition).

| Compound | DC50 (CDK12) | IC50 (CDK12/CyclinK) | (IC50 CDK12 high ATP) to (Degradation DC50 CDK12) ratio (CDK12/CyclinK) | IC50 [1] |
| --- | --- | --- | --- | --- |
| COc1ccc(-c2nnc(CNc3nc(N4CCOCC4)nc4c(C(F)(F)F)cnn34)[nH]2)cn1 [Example 15, N-{[5-(6-methoxypyridin-3-yl)-4H-1,2,4-triazol-3-yl]methyl}-2-(morpholin-4-yl)-8-(trifluoromethyl)pyrazolo[1,5-a][1,3,5]triazin-4-amine] | > 1000 nM | 526 nM | <0.53 | 355 nM |
| FC(F)(F)c1ccc(-c2nnc(CNc3nc(N4CCOCC4)nc4c(Br)cnn34)[nH]2)cc1 [Example 1, 8-bromo-2-(morpholin-4-yl)-N-({5-[4-(trifluoromethyl)phenyl]-4H-1,2,4-triazol-3-yl}methyl)pyrazolo[1,5-a][1,3,5]triazin-4-amine] | 2380 nM | 1830 nM | 0.77 | 580 nM |
| FC(F)(F)Oc1ccc(-c2cnc(CNc3nc(N4CCOCC4)nc4c(C(F)(F)F)cnn34)[nH]2)cc1 [Example 10, 2-(morpholin-4-yl)-N-({5-[4-(trifluoromethoxy)phenyl]-1H-imidazol-2-yl}methyl)-8-(trifluoromethyl)pyrazolo[1,5-a][1,3,5]triazin-4-amine] | > 1000 nM | 7.59 nM | <7.59E−3 | 69.8 nM |
| COc1ccc(-c2cnc(CNc3nc(N4CCOCC4)nc4c(C(F)(F)F)cnn34)[nH]2)cn1 [Example 21, N-{[5-(6-methoxypyridin-3-yl)-1H-imidazol-2-yl]methyl}-2-(morpholin-4-yl)-8-(trifluoromethyl)pyrazolo[1,5-a][1,3,5]triazin-4-amine] | > 1000 nM | – | – | 99 nM |
| COc1ccc(-c2nnc(CNc3nc(N4CCOCC4)nn4c(C(F)(F)F)cnc34)[nH]2)cn1 [Example 18, N-{[5-(6-methoxypyridin-3-yl)-4H-1,2,4-triazol-3-yl]methyl}-2-(morpholin-4-yl)-7-(trifluoromethyl)imidazo[2,1-f][1,2,4]triazin-4-amine] | > 1000 nM | – | – | 104 nM |
| FC(F)(F)Oc1ccc(-c2nnc(CNc3nc(N4CCOCC4)nn4c(C(F)(F)F)cnc34)[nH]2)cn1 [Example 19, 2-(morpholin-4-yl)-N-({5-[6-(trifluoromethoxy)pyridin-3-yl]-4H-1,2,4-triazol-3-yl}methyl)-7-(trifluoromethyl)imidazo[2,1-f][1,2,4]triazin-4-amine] | – | 4.14 nM | – | 63.2 nM |
| FC(F)(F)c1ccc(-c2cnc(CNc3nc(N4CCOCC4)nc4c(C(F)(F)F)cnn34)[nH]2)cn1 [Example 24, 2-(morpholin-4-yl)-8-(trifluoromethyl)-N-({5-[6-(trifluoromethyl)pyridin-3-yl]-1H-imidazol-2-yl}methyl)pyrazolo[1,5-a][1,3,5]triazin-4-amine] | > 1000 nM | – | – | 30.2 nM |

Further lines, with some results ahead:

| DC50 (CDK12) | IC50 (CDK12/CyclinK) | (IC50 CDK12 high ATP) to (Degradation DC50 CDK12) ratio (CDK12/CyclinK) | Compound | IC50 [1] |
| --- | --- | --- | --- | --- |
| 893 nM | 8.34 nM | 9.34E−03 | FC(F)(F)Oc1ccc(-c2cnc(CNc3nc(N4CCOCC4)nn4c(C(F)(F)F)cnc34)[nH]2)cc1 [Example 8, 2-(morpholin-4-yl)-N-({5-[4-(trifluoromethoxy)phenyl]-1H-imidazol-2-yl}methyl)-7-(trifluoromethyl)imidazo[2,1-f][1,2,4]triazin-4-amine] | 90.7 nM |
| 671 nM | 26.3 nM | 0.04 | FC(F)(F)c1ccc(-c2cnc(CNc3nc(N4CCOCC4)nn4c(C(F)(F)F)cnc34)[nH]2)cc1 [Example 7, 2-(morpholin-4-yl)-7-(trifluoromethyl)-N-({5-[4-(trifluoromethyl)phenyl]-1H-imidazol-2-yl}methyl)imidazo[2,1-f][1,2,4]triazin-4-amine] | 103 nM |
| 950 nM | 9.21 nM | 9.69E−03 | FC(F)(F)c1ccc(-c2cnc(CNc3nc(N4CCOCC4)nc4c(C(F)(F)F)cnn34)[nH]2)cc1 [Example 9, 2-(morpholin-4-yl)-8-(trifluoromethyl)-N-({5-[4-(trifluoromethyl)phenyl]-1H-imidazol-2-yl}methyl)pyrazolo[1,5-a][1,3,5]triazin-4-amine] | 109 nM |
| 1000 nM | 262 nM | 0.26 | FC(F)(F)Oc1ccc(-c2nnc(CNc3nc(N4CCOCC4)nc4c(C(F)(F)F)cnn34)[nH]2)cc1 [Example 5, 2-(morpholin-4-yl)-N-({5-[4-(trifluoromethoxy)phenyl]-4H-1,2,4-triazol-3-yl}methyl)-8-(trifluoromethyl)pyrazolo[1,5-a][1,3,5]triazin-4-amine] | 319 nM |
| 665 nM | – | – | FC(F)(F)Oc1ccc(-c2nnc(CNc3nc(N4CCOCC4)nn4c(C(F)(F)F)cnc34)[nH]2)cc1 [Example 14, 2-(morpholin-4-yl)-N-({5-[4-(trifluoromethoxy)phenyl]-4H-1,2,4-triazol-3-yl}methyl)-7-(trifluoromethyl)imidazo[2,1-f][1,2,4]triazin-4-amine] | 248 nM |
